Test results taken from paper PMC12193579, “Pro-Apoptotic Activity of 1-(4,5,6,7-Tetrabromo-1H-benzimidazol-1-yl)propan-2-one, an Intracellular Inhibitor of PIM-1 Kinase in Acute Lymphoblastic Leukemia and Breast Cancer Cells” (International Journal of Molecular Sciences, 2025).

Key:
[1] = biological target: T1, recombinant human CK2 catalytic subunit (rhCK2α) (Homo sapiens, UniProt P68400); assay: radiometric P81 filter isotopic kinase assay, CK2α; assay type: biochemical
T1 construct: made in house
T1 sequence (P68400 whole entry): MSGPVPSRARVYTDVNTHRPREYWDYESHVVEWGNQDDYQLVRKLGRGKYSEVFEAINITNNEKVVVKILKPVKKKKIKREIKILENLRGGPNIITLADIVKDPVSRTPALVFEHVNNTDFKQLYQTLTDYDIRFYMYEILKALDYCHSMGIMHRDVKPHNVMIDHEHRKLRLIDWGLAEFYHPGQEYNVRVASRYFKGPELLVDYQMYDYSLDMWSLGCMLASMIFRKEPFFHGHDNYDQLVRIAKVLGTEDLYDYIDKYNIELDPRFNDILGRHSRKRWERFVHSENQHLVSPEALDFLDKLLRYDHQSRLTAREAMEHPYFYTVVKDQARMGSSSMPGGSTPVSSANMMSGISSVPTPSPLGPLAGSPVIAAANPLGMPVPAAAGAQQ
Experimental: (§1) Synthetic peptide […] served as the substrate for CK2, while peptide […] was used as the substrate for PIM-1.
(§2) The synthesized compounds were evaluated for their inhibitory activity against human CK2α, the human CK2 holoenzyme, and PIM-1 using the P81 filter-based isotopic assay, as previously described. […] The experimental data were fitted to a dose–response curve using non-linear regression analysis (variable slope) Y = Bottom + (Top − Bottom)/(1 + 10^((LogIC50 − X) × HillSlope) equation in GraphPad Prism (Prism 9, version 9.0.1).

[2] = system: CK2 in CCRF-CEM cells (Ser529 in NF-κB p65); assay: PhosFlow analysis of NF-κB p65 Ser529 phosphorylation, CCRF-CEM; assay type: cell-based, human; conditions: 16 µM, 24 h
Experimental: CCRF-CEM cells were prepared following the BD PhosFlow™ Protocol for Human PBMCs using NF-κB p65 (pS529)-PE (#558423), BD PhosFlow™ Perm Buffer III (#558050), Cytofix Fixation Buffer (#554655), and Stain Buffer FBS (#554656), all obtained from Becton Dickinson. Flow cytometric analysis was performed using a BD Accuri C6 Plus cytometer (Becton Dickinson) according to the manufacturer’s instructions.

MCF-7 cells [3] = assay: cell cycle progression by flow cytometry, MCF-7; assay type: cell-based, human; conditions: 48 h
Experimental: Additionally, we observed the prolongation of G2/M in MCF-7 treated with 1 at the highest concentration. […] 1 induced G2/M phase arrest in MCF-7 with the highest effect detected for the 16 µM concentration, manifested as 32% cells in that stage, whereas in the control, the percentage of G2/M cells was 22%.
CCRF-CEM and MCF-7 cells were cultured in 6-well plates and treated with the tested compounds for 48 h. After exposure to the compounds, the cells were collected, washed with cold PBS, and fixed in 70% ethanol at –20 °C for at least 24 h. Subsequently, the cells were washed in PBS and stained according to the procedure previously described by our group. The cellular DNA content was measured by flow cytometry using a BD Accuri C6 Plus flow cytometer (BD Biosciences, San Jose, CA, USA). The resulting DNA histograms were analyzed with BD Accuri C6 Plus software (San Diego, CA, USA) to assess the distribution of cells across different phases of the cell cycle.

MCF-7 (breast carcinoma) = assay: MTT-based viability assay, MCF-7; assay type: cell-based, human
Experimental: 3. The cytotoxicity of the newly obtained inhibitors, i.e., 1, 2, and 4 was tested towards four cell lines, i.e., CCRF-CEM (acute lymphoblastic leukemia ALL), MCF-7 (breast carcinoma), MDA-MB-231 (triple negative breast carcinoma), and Vero (Cercopithecus aethiops kidney).
The CCRF-CEM (acute lymphoblastic leukemia, ALL) and MDA-MB-231 (triple-negative breast adenocarcinoma) cell lines were obtained from the European Collection of Authenticated Cell Cultures (ECACC), while the MCF-7 (hormone-dependent breast adenocarcinoma) and Vero (Cercopithecus aethiops kidney) cell lines were purchased from the American Type Culture Collection (ATCC, Manassas, VA, USA). CCRF-CEM cells were maintained in RPMI-1640 medium, whereas MCF-7 and MDA-MB-231 cells were cultured in DMEM (Sigma-Aldrich Chemical Company, St. Louis, MO, USA). Vero cells were cultured in minimum essential medium eagle (MEM; Sigma-Aldrich). All media were supplemented with 10% fetal bovine serum (FBS), 2 mM L-glutamine, and antibiotics (100 U/mL penicillin and 100 µg/mL streptomycin) (Sigma-Aldrich). Cells were grown in 75-cm^2 culture flasks (Googlab Scientific, Rakocin, Poland) in a humidified atmosphere containing 5% CO2 at 37 °C. All experiments were performed using exponentially growing cultures. Stock solutions of the test compounds were prepared in DMSO and stored at –80 °C for up to one month.
Following incubation with the tested compounds, the MTT assay was carried out as previously described. Optical density was measured at 570 nm using a BioTek microplate reader (Winooski, VT, USA). All measurements were performed in at least three independent biological replicates.

CCRF-CEM cells = assay: mitochondrial membrane potential (ΔΨm) JC-1 assay, CCRF-CEM; assay type: cell-based, human; conditions: 48 h
Experimental: (§3) The mitochondrial membrane potential was evaluated by flow cytometry using 5,5′,6,6′-tetrachloro-1,1′,3,3′-tetraethylbenzimidazolocarbocyanine iodide (JC-1; Sigma-Aldrich), as previously described.

MCF-7 cells [4] = assay: mitochondrial membrane potential (ΔΨm) JC-1 assay, MCF-7; assay type: cell-based, human; conditions: 48 h
Experimental: as §3

PIM-1 kinase = biological target: T2, PIM-1 kinase (Homo sapiens, UniProt P11309); assay: radiometric P81 filter isotopic kinase assay, PIM-1; assay type: biochemical
T2 construct: made in house
T2 sequence (P11309 whole entry): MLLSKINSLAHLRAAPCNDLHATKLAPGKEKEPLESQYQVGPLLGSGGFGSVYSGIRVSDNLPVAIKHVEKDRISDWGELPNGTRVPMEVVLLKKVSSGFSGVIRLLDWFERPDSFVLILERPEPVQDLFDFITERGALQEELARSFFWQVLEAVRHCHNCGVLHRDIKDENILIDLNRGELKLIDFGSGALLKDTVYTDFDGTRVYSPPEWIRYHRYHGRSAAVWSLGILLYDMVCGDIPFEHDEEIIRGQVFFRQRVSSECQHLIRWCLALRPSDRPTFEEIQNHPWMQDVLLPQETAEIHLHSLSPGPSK
Experimental: as §1, §2

[5] = system: PIM-1 kinase in CCRF-CEM cells (Ser112 in BAD); assay: Western blot of phosphorylated BAD (Ser112), marker of PIM kinase activity, CCRF-CEM; assay type: cell-based, human; conditions: 16 µM, 24 h, untreated cells = 1
Experimental: (§4) After 24 h of treatment, we assessed site-specific phosphorylation of Ser529 in NF-κB p65 and Ser112 in BAD—a marker of PIM kinase activity—using Western blot analysis (Figure 8). The data for BAD confirmed intracellular inhibition of this kinase by the tested compounds in both cell lines in a dose-dependent manner. A statistically significant decrease in phosphorylated BAD was observed following treatment with 16 µM of compound 1, with relative protein levels reduced to 0.48 and 0.46 in CCRF-CEM and MCF-7 cells, respectively (Figure 8a–c).
(§5) Exponentially growing CCRF-CEM or MCF-7 cells were seeded at a density of 6 × 10^5 cells per 6 cm dish. Compounds were then added, with a final DMSO concentration of 0.5%. Cell lysates were prepared as previously described. The ECL substrate was used for signal detection, and the immunoblots were scanned using a G:BOX Chemi imaging system (Syngene, Cambridge, UK) equipped with GeneSys software, Version 1.4.3.0 (Syngene, Cambridge, UK).
(§6) For densitometric analysis, immunoblots were scanned using the G:BOX Chemi system (Syngene), and the band intensities of phosphorylated and total proteins were quantified with GeneSys software (Syngene, Cambridge, UK). The levels of phosphorylated proteins were normalized to GAPDH, with the value for untreated cells set to 1, and subsequently expressed as a percentage relative to the appropriate control.

[6] = system: CK2 in MCF-7 cells (Ser529 in NF-κB p65); assay: Western blot of phosphorylated p65 (Ser529), intracellular CK2 inhibition, MCF-7; assay type: cell-based, human; conditions: 8 µM, 24 h, untreated cells = 1
Experimental: as §4, §5, §6

## CC(=O)Cn1cnc2c(Br)c(Br)c(Br)c(Br)c21 [compound 1, 1-(4,5,6,7-tetrabromo-1H-benzimidazol-1-yl)propan-2-one]
[1]
  IC50: 6.65 ± 0.74 µM
[1]; cpd. concentration 2 μM, read-out: CK2α Residual Activity [%]
  remaining activity at 2 µM: 58.5 ± 2.2%
[1]; cpd. concentration 5 μM, read-out: CK2α Residual Activity [%]
  remaining activity at 5 µM: 32.3 ± 0.3%
[1]; cpd. concentration 20 μM, read-out: CK2α Residual Activity [%]
  remaining activity at 20 µM: 10.2 ± 0.6%
[2]
  p65-P-negative CCRF-CEM cells: 29%
MCF-7 cells [3]; 8 µM, control 17%
  MCF-7 cells in the S phase: 11%
MCF-7 cells [3]; 16 µM, control 22%
  MCF-7 cells in the G2/M phase: 32%
MCF-7 (breast carcinoma); Homo sapiens, MCF7, MTT, 48 h, read-out: IC50 [µM] MCF-7
  IC50: 17.1 ± 2.07 µM
MCF-7 (breast carcinoma); IC50 for Vero/IC50 for cancer cells
  SI (selectivity index) MCF-7: 1.18
CCRF-CEM cells; 16 µM
  CCRF-CEM cells with reduced ΔΨm: 76%
CCRF-CEM cells; 32 µM
  CCRF-CEM cells with reduced ΔΨm: 99.4%
MCF-7 cells [4]; 16 µM
  MCF-7 cells with reduced ΔΨm: 26%
MCF-7 cells [4]; 32 µM
  MCF-7 cells with reduced ΔΨm: 19%
PIM-1 kinase
  IC50: 0.52 ± 0.02 µM
PIM-1 kinase; cpd. concentration 2 μM, read-out: PIM-1 Residual Activity [%]
  remaining activity at 2 µM: 22.4 ± 0.9%
PIM-1 kinase; cpd. concentration 5 μM, read-out: PIM-1 Residual Activity [%]
  remaining activity at 5 µM: 10.3 ± 0.7%
PIM-1 kinase; cpd. concentration 20 μM, read-out: PIM-1 Residual Activity [%]
  remaining activity at 20 µM: 2.9 ± 0.2%
[5]
  relative level of phosphorylated BAD (Ser112), CCRF-CEM: 0.48
[6]
  relative level of p65-P (Ser529), MCF-7: 0.84
